Data taken from US20260097106A1, “AVIRULENT LIVE BACTERIAL VACCINES CURED OF PLASMIDS CONTAINING ANTIMICROBIAL RESISTANCE GENES” (Drs. Koehnk & Feldman, LLP, priority 2022, published 2026).
Where two headings read alike, the source gives them in different places.

Tests used:
[1] = test system: F18 Cured vaccine (MS060520HM-PCISRAF18); assay: Antibiotic sensitivity (Int/MIC) at Iowa State University; type: cell-based, E. coli; settings: for MIC: F18 Cured vaccine; for Antibiotic resistance of cured cells (in words): cured MS060520HM-PCISRAF18 cells over MS112101HM-competent cells
Protocol: (§1) The antibiotic sensitivity of Edema Vac F18 cells cured of plasmids that contain AMR genes (MS060520HM-PCISRAF18) was performed at Iowa State University (ISU) (Accession: 2020076670) with comparison to MS112101HM-competent cells (see Tables 4 and 5).

[2] = test system: F18 Pre-Cured cells (MS112101HM-competent); assay: as above; type: cell-based, E. coli; settings: Table 4, E. COLH
Protocol: as §1

[3] = test system: K88 Cured vaccine (MS-K88-030321HM-PC2BSRAK88); assay: as above; type: cell-based, E. coli; settings: for MIC: Table 7, E. COS, K88 Cured vaccine; for Antibiotic sensitivity of cured cells (in words): cured MS-K88-030321HM-PC2BSRAK88 cells compared with ECMS091703HM-competent cells
Protocol: (§2) The antibiotic sensitivity of Entero Vac K88 cells cured of plasmids that contain AMR genes (MS-K88-030321HM-PC2BSRAK88) was performed at Iowa State University (ISU) with comparison to ECMS091703HM-competent cells.

[4] = test system: K88 Pre-Cured cells (ECMS091703HM-competent); assay: as above; type: cell-based, E. coli; settings: Table 7, E. COS
Protocol: as §2

[5] = test system: MS112101HM-AMR5 (Edema Vac F18 transformed with AMR5 plasmid); assay: AMR disc testing on Mueller Hinton agar plates; type: cell-based, E. coli; settings: for Ring measurement (radius, mm): antibiotic disc, Mueller Hinton plates
Protocol: (§3) AMR testing was performed comparing MS112101HM—SR, MS112101HM-AMR5, and MS112101HM-competent cells cultured on Mueller Hinton agar plates using Sulfatrim (SXT), Tetracycline (TE 30), Neomycin (NE 30), Sulfathiazine (ST 0.25), and Gentamicin (GM 10) discs.

[6] = test system: MS112101HM-SR (Edema Vac F18 cells cured of plasmids that contain AMR genes); assay: AMR disc testing on Mueller Hinton agar plates; type: cell-based, E. coli; settings: for Ring measurement (radius, mm): antibiotic disc, Mueller Hinton plates, MS112101HM-SR; for Resistance of the strain to the antibiotic (in words): disc test, MS112101HM-SR compared with MS112101HM-competent
Protocol: as §3

[7] = test system: MS112101HM-competent (competent Edema Vac F18 cells); assay: AMR disc testing on Mueller Hinton agar plates; type: cell-based, E. coli; settings: antibiotic disc
Protocol: as §3

[8] = test system: ECMS091703HM-SR (Entero Vac K88 cells cured of plasmids that contain AMR genes); assay: AMR disc testing on Mueller Hinton agar plates; type: cell-based, E. coli
Protocol: AMR testing was performed comparing ECMS091703HM-SR and ECMS091703HM-competent cells cultured on Mueller Hinton agar plates using Neomycin (NE 30) and Sulfathiazine (ST 0.25) discs. A master plate of ECMS091703HM-SR was produced as follows: subculturing a colony of ECMS091703HM-SR from LB agar containing 5% sucrose on new LB agar containing 5% sucrose, incubating overnight at 37° C., and storing sealed at 2-8° C.

[9] = test system: Edema Vac F18 strain of E. coli vaccine; settings: TSB media, overnight 37° C.
Protocol: (§4) Testing for resistance of the live avirulent E. coli strains, Entero Vac K88 and Edema Vac F18, to sodium chlorite was performed by evaluating the minimum inhibitory concentration of sodium chlorite as follows: Serial dilutions of sodium chlorite were prepared from a 100 mM stock solution using sterile TSB media and filter sterilized through 0.22 μm filter. Serially diluted tubes (5 ml each) were inoculated with either Entero Vac K88 or Edema Vac F18 strains of E. coli vaccine by adding 20 μl of 100 dose size of either Entero Vac K88 or Edema Vac F18 vaccine rehydrated in 5 ml TSB media. Positive controls are inoculated TSB media only, negative controls are uninoculated TSB media. All tubes were incubated overnight at 37° C. and turbidity was visualized the following day. Results of the MIC tests are disclosed in Table 1.

[10] = test system: Entero Vac K88 strain of E. coli vaccine; settings: TSB media, overnight 37° C.
Protocol: as §4

| Compound | MIC ([1]; Table 4, E. COLH) | MIC ([1]; Table 5, E. COS) | MIC [2] | MIC [3] | MIC [4] | Antibiotic resistance of cured cells (in words) [1] | other results |
| --- | --- | --- | --- | --- | --- | --- | --- |
| CN1C[C@@H]2C[C@H]1CN2c1cc2c(cc1F)c(=O)c(C(=O)O)cn2C1CC1 [Danofloxacin] | NI/<=0.1200 | NI/<=0.1200 | NI/<=0.1200 | NI/<=0.1200 | NI/<=0.1200 | – | – |
| CS(=O)(=O)c1ccc([C@@H](O)[C@@H](CF)NC(=O)C(Cl)Cl)cc1 [Florfenicol] | – | – | – | – | – | loss of antibiotic resistance | Antibiotic sensitivity of cured cells (in words) [3]: more sensitive |
| CCCN1C[C@H](C)[C@@H](O)[C@](C)(O)[C@@H](CC)OC(=O)[C@H](C)[C@@H](O[C@H]2C[C@@](C)(OC)[C@@H](O)[C@H](C)O2)[C@H](C)[C@@H](O[C@@H]2O[C@H](C)C[C@H](N(C)C)[C@H]2O)[C@](C)(O)C[C@H]1C [Gamithromycin] | NI/4.0000 ^ | NI/8.0000 ^ | NI/4.0000 ^ | NI/8.0000 ^ | NI/>8.0000 | – | – |
| CN[C@@H]1[C@H](O)[C@H](NC)[C@H]2O[C@@]3(O)C(=O)C[C@@H](C)O[C@H]3O[C@@H]2[C@H]1O [Spectinomycin] | NI/16.0000 | NI/<=8.0000 | NI/>64.0000 | NI/<=8.0000 | NI/>64.0000 | – | – |
| COc1cc(NS(=O)(=O)c2ccc(N)cc2)nc(OC)n1 [Sulfadimethoxine] | – | – | – | – | – | loss of antibiotic resistance | Antibiotic sensitivity of cured cells (in words) [3]: more sensitive |
| CN(C)[C@@H]1C(O)=C(C(N)=O)C(=O)[C@@]2(O)C(O)=C3C(=O)c4c(O)cccc4[C@@](C)(O)[C@H]3C[C@@H]12 [Tetracycline] | – | – | – | – | – | – | Ring measurement (radius, mm) [5]: 0 mm; Ring measurement (radius, mm) [6]: 0 mm; Ring measurement (radius, mm) [7]: 0 mm |
| C=C[C@]1(C)C[C@@H](OC(=O)CSCCN(CC)CC)[C@]2(C)[C@H](C)CC[C@]3(CCC(=O)[C@H]32)[C@@H](C)[C@@H]1O [Tiamulin] | – | – | – | – | – | retained resistance | – |
| CC[C@H]1OC(=O)C[C@@H](O)[C@H](C)[C@@H](O[C@@H]2O[C@H](C)[C@@H](O)[C@H](N(C)C)[C@H]2O)[C@@H](CCN2CCCCC2)C[C@@H](C)C(=O)/C=C/C(C)=C/[C@@H]1CN1CCCCC1 [Tildipirosin] | NI/4.0000 ^ | NI/8.0000 ^ | NI/4.0000 ^ | NI/8.0000 ^ | NI/8.0000 ^ | – | – |
| CC[C@H]1OC(=O)C[C@@H](O)[C@H](C)[C@@H](O[C@@H]2O[C@H](C)[C@@H](O)[C@H](N(C)C)[C@H]2O)[C@@H](CCN2C[C@H](C)C[C@H](C)C2)C[C@@H](C)C(=O)/C=C/C(C)=C/[C@@H]1CO[C@@H]1O[C@H](C)[C@@H](O)[C@@H](OC)[C@H]1OC [Tilmicosin] | – | – | – | – | – | retained resistance | – |
| CCCNC[C@]1(O)[C@H](C)O[C@@H](O[C@H]2[C@H](C)[C@@H](O[C@@H]3O[C@H](C)C[C@H](N(C)C)[C@H]3O)[C@](C)(O)C[C@@H](C)CN[C@H](C)[C@@H](O)[C@](C)(O)[C@@H](CC)OC(=O)[C@@H]2C)C[C@@]1(C)OC [Tulathromycin] | NI/<=8.0000 | NI/<=8.0000 | NI/<=8.0000 | NI/<=8.0000 | NI/32.0000 ^ | – | – |
| CC[C@H]1OC(=O)C[C@@H](O)[C@H](C)[C@@H](O[C@@H]2O[C@H](C)[C@@H](O[C@H]3C[C@@](C)(O)[C@@H](O)[C@H](C)O3)[C@H](N(C)C)[C@H]2O)[C@@H](CC=O)C[C@@H](C)C(=O)/C=C/C(C)=C/[C@@H]1CO[C@@H]1O[C@H](C)[C@@H](O)[C@@H](OC)[C@H]1OC [Tylosin (Tartrate/Base), Tylosin] | NI/>32.0000^ | NI/>32.0000 | NI/>32.0000 | NI/>32.0000 | NI/>32.0000 | – | – |
| Gentamicin | – | – | – | – | – | loss of antibiotic resistance | Ring measurement (radius, mm) [5]: 11 mm; Ring measurement (radius, mm) [6]: 11 mm; Resistance of the strain to the antibiotic (in words) [6]: less resistance; Ring measurement (radius, mm) [7]: 4 mm |
| Neomycin | – | – | – | – | – | – | Ring measurement (radius, mm) [5]: 11 mm; Resistance of the strain to the antibiotic (in words) ([5]; disc test): retained resistance; Ring measurement (radius, mm) [6]: 8 mm; Resistance of the strain to the antibiotic (in words) [6]: less resistance; Ring measurement (radius, mm) [7]: 7 mm; Ring measurement (radius, mm) ([8]; antibiotic disc, Mueller Hinton plates, ECMS091703HM-SR): 34 mm; Resistance of the strain to the antibiotic (in words) ([8]; disc test, ECMS091703HM-SR compared with ECMS091703HM-competent): less resistance; Antibiotic sensitivity of cured cells (in words) [3]: more sensitive |
| Penicillin | – | – | – | – | – | retained resistance | – |
| Sodium Chlorite [NaClO2] | – | – | – | – | – | – | Turbidity ([9]; NaClO2 0.03125 mM): Pos; Turbidity ([9]; NaClO2 0.0625 mM): Pos; Turbidity ([9]; NaClO2 0.125 mM): Neg; Turbidity ([9]; NaClO2 0.25 mM): Neg; Turbidity ([9]; NaClO2 0.5 mM): Neg; Turbidity ([9]; NaClO2 1 mM): Neg; Turbidity ([9]; NaClO2 10 mM): Neg; Turbidity ([10]; NaClO2 0.03125 mM): Pos; Turbidity ([10]; NaClO2 0.0625 mM): Pos; Turbidity ([10]; NaClO2 0.125 mM): Neg; Turbidity ([10]; NaClO2 0.25 mM): Neg; Turbidity ([10]; NaClO2 0.5 mM): Neg; Turbidity ([10]; NaClO2 1 mM): Neg; Turbidity ([10]; NaClO2 10 mM): Neg |
| Sulfatrim [SXT] | – | – | – | – | – | – | Ring measurement (radius, mm) [5]: 17 mm; Ring measurement (radius, mm) [6]: 16 mm; Resistance of the strain to the antibiotic (in words) [6]: less resistance; Ring measurement (radius, mm) [7]: 11 mm |
| Trimethoprim/Sulphamethoxazole | NI/<=2.0000 | NI/<=2.0000 | NI/<=2.0000 | NI/<=2.0000 | NI/<=2.0000 | – | – |
